Results as given in PubChem BioAssay (NCI).
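All cell lines were grown in 96-well plates and treated with compound for 48 hours. At the GI50, growth is halved. TGI: total growth inhibition.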

Columns and labels:
Assay in all cases: NCI-60 cell line screen, 48 h
[1] = system: 786-0 renal
[2] = system: A498 renal
[3] = system: A549 NSCLC
[4] = system: ACHN renal
[5] = system: BT-549 breast
[6] = system: CCRF-CEM leukemia
[7] = system: COLO 205 colon
[8] = system: DU-145 prostate
[9] = system: HCC-2998 colon
[10] = system: HCT-116 colon
[11] = system: HCT-15 colon
[12] = system: HL-60(TB) leukemia
[13] = system: HOP-62 NSCLC
[14] = system: HOP-92 NSCLC
[15] = system: HS 578T breast
[16] = system: HT29 colon
[17] = system: IGROV1 ovarian
[18] = system: K-562 leukemia
[19] = system: KM12 colon
[20] = system: LOX IMVI melanoma
[21] = system: M14 melanoma
[22] = system: MALME-3M melanoma
[23] = system: MCF7 breast
[24] = system: MDA-MB-231 breast
[25] = system: MDA-MB-435
[26] = system: MOLT-4 leukemia
[27] = system: NCI-H226 lung
[28] = system: NCI-H23 lung
[29] = system: NCI-H460 lung
[30] = system: NCI-H522 lung
[31] = system: NCI/ADR-RES ovarian
[32] = system: OVCAR-3 ovarian
[33] = system: OVCAR-4 ovarian
[34] = system: OVCAR-5 ovarian
[35] = system: OVCAR-8 ovarian
[36] = system: PC-3 prostate
[37] = system: RPMI-8226 leukemia
[38] = system: RXF 393 renal
[39] = system: SF-268 CNS
[40] = system: SF-295 CNS
[41] = system: SF-539 CNS
[42] = system: SK-MEL-2 melanoma
[43] = system: SK-MEL-28 melanoma
[44] = system: SK-MEL-5 melanoma
[45] = system: SK-OV-3 ovarian
[46] = system: SN12C renal
[47] = system: SNB-19 CNS
[48] = system: SNB-75 CNS
[49] = system: SR leukemia
[50] = system: SW-620 colon
[51] = system: T-47D breast
[52] = system: TK-10 renal
[53] = system: U251 CNS
[54] = system: UACC-257 melanoma
[55] = system: UACC-62 melanoma
[56] = system: UO-31 renal
[57] = system: EKVX NSCLC

Compound: O=C1/C(=C/c2ccc(F)cc2)CN(Cc2cn(CCNc3ccnc4cc(Cl)ccc34)nn2)C/C1=C\c1ccc(F)cc1
- GI50 [1]: 1.66 µM
- TGI [1]: 3.04 µM
- GI50 [2]: 1.11 µM
- TGI [2]: 2.35 µM
- GI50 [3]: 1.88 µM
- TGI [3]: 4.23 µM
- GI50 [4]: 1.68 µM
- TGI [4]: 3.04 µM
- GI50 [5]: 1.85 µM
- TGI [5]: 3.26 µM
- GI50 [6]: 1.05 µM
- TGI [6]: 4.65 µM
- GI50 [7]: 1.5 µM
- TGI [7]: 2.88 µM
- GI50 [8]: 1.32 µM
- TGI [8]: 2.63 µM
- GI50 [9]: 1.19 µM
- TGI [9]: 2.55 µM
- GI50 [10]: 0.258 µM
- TGI [10]: 0.721 µM
- GI50 [11]: 1.4 µM
- TGI [11]: 3.21 µM
- GI50 [12]: 1.41 µM
- TGI [12]: 4.97 µM
- GI50 [13]: 2.07 µM
- TGI [13]: 3.76 µM
- GI50 [14]: 1.34 µM
- TGI [14]: 3.05 µM
- GI50 [15]: 2.33 µM
- TGI [15]: 7.56 µM
- GI50 [16]: 0.68 µM
- TGI [16]: 2.09 µM
- GI50 [17]: 1.5 µM
- TGI [17]: 2.93 µM
- GI50 [18]: 0.301 µM
- TGI [18]: 1.58 µM
- GI50 [19]: 0.328 µM
- TGI [19]: 1.19 µM
- GI50 [20]: 0.474 µM
- TGI [20]: 1.72 µM
- GI50 [21]: 1.92 µM
- TGI [21]: 3.74 µM
- GI50 [22]: 1.98 µM
- TGI [22]: 3.76 µM
- GI50 [23]: 0.4 µM
- TGI [23]: 1.75 µM
- GI50 [24]: 1.76 µM
- TGI [24]: 3.41 µM
- GI50 [25]: 1.41 µM
- TGI [25]: 2.73 µM
- GI50 [26]: 2.38 µM
- TGI [26]: 7.08 µM
- GI50 [27]: 1.91 µM
- TGI [27]: 4.24 µM
- GI50 [28]: 1.84 µM
- TGI [28]: 4.01 µM
- GI50 [29]: 1.18 µM
- TGI [29]: 2.57 µM
- GI50 [30]: 1.67 µM
- TGI [30]: 3.16 µM
- GI50 [31]: 2.76 µM
- TGI [31]: 11.3 µM
- GI50 [32]: 1.24 µM
- TGI [32]: 2.5 µM
- GI50 [33]: 1.81 µM
- TGI [33]: 8.75 µM
- GI50 [34]: 1.92 µM
- TGI [34]: 3.71 µM
- GI50 [35]: 1.78 µM
- TGI [35]: 5.24 µM
- GI50 [36]: 1.16 µM
- TGI [36]: 2.6 µM
- GI50 [37]: 0.299 µM
- TGI [37]: 0.896 µM
- GI50 [38]: 1.66 µM
- TGI [38]: 3.11 µM
- GI50 [39]: 1.52 µM
- TGI [39]: 2.91 µM
- GI50 [40]: 1.94 µM
- TGI [40]: 3.65 µM
- GI50 [41]: 1.83 µM
- TGI [41]: 3.27 µM
- GI50 [42]: 1.94 µM
- TGI [42]: 3.73 µM
- GI50 [43]: 1.74 µM
- TGI [43]: 3.13 µM
- GI50 [44]: 1.7 µM
- TGI [44]: 3.06 µM
- GI50 [45]: 1.6 µM
- TGI [45]: 3.02 µM
- GI50 [46]: 1.58 µM
- TGI [46]: 3.09 µM
- GI50 [47]: 1.57 µM
- TGI [47]: 2.92 µM
- GI50 [48]: 1.6 µM
- TGI [48]: 3.62 µM
- GI50 [49]: 0.333 µM
- TGI [49]: 1.66 µM
- GI50 [50]: 0.366 µM
- TGI [50]: 1.39 µM
- GI50 [51]: 1.89 µM
- TGI [51]: 4.33 µM
- GI50 [52]: 1.85 µM
- TGI [52]: 3.45 µM
- GI50 [53]: 1.33 µM
- TGI [53]: 2.68 µM
- GI50 [54]: 1.78 µM
- TGI [54]: 3.35 µM
- GI50 [55]: 1.56 µM
- TGI [55]: 2.95 µM
- GI50 [56]: 1.37 µM
- TGI [56]: 2.7 µM

Compound: N#CC1=C(N)Oc2c(sc3c(F)cccc23)C1c1ccc(Cl)cc1 (stereo unspecified)
- GI50 [1]: 3.15 µM
- TGI [1]: 11.1 µM
- GI50 [2]: 2.57 µM
- TGI [2]: 11.2 µM
- GI50 [3]: 4.24 µM
- TGI [3]: 17.5 µM
- GI50 [4]: 4.62 µM
- TGI [4]: 19.3 µM
- GI50 [5]: 3.6 µM
- TGI [5]: 22.5 µM
- GI50 [6]: 2.99 µM
- TGI [6]: 12.1 µM
- GI50 [7]: 2.31 µM
- TGI [7]: 6.15 µM
- GI50 [8]: 3.49 µM
- TGI [8]: 12.9 µM
- GI50 [57]: 4 µM
- TGI [57]: 21.7 µM
- GI50 [9]: 7.25 µM
- TGI [9]: 22.6 µM
- GI50 [10]: 3.7 µM
- TGI [10]: 13.9 µM
- GI50 [11]: 2.75 µM
- TGI [11]: 13.1 µM
- GI50 [12]: 2.69 µM
- TGI [12]: 8.3 µM
- GI50 [13]: 2.99 µM
- TGI [13]: 15.7 µM
- GI50 [14]: 3.71 µM
- TGI [14]: 19.2 µM
- GI50 [15]: 2.63 µM
- TGI [15]: 15.5 µM
- GI50 [16]: 3.17 µM
- TGI [16]: 11.5 µM
- GI50 [17]: 3.43 µM
- TGI [17]: 17.1 µM
- GI50 [18]: 1.28 µM
- TGI [18]: 16.3 µM
- GI50 [19]: 2.75 µM
- TGI [19]: 18.9 µM
- GI50 [20]: 3.06 µM
- TGI [20]: 11.8 µM
- GI50 [21]: 2.19 µM
- TGI [21]: 6.57 µM
- GI50 [22]: 6.85 µM
- TGI [22]: 26.3 µM
- GI50 [23]: 1.85 µM
- TGI [23]: 12 µM
- GI50 [24]: 3.46 µM
- TGI [24]: 16.2 µM
- GI50 [25]: 0.616 µM
- TGI [25]: 2.7 µM
- GI50 [26]: 2.93 µM
- TGI [26]: 10.5 µM
- GI50 [27]: 12.7 µM
- TGI [27]: 34.8 µM
- GI50 [28]: 3.37 µM
- TGI [28]: 16.2 µM
- GI50 [29]: 3.38 µM
- TGI [29]: 11.8 µM
- GI50 [30]: 1.93 µM
- TGI [30]: 11.7 µM
- GI50 [31]: 2.09 µM
- TGI [31]: 6.68 µM
- GI50 [32]: 2.6 µM
- TGI [32]: 7.44 µM
- GI50 [33]: 4.21 µM
- TGI [33]: 19.6 µM
- GI50 [34]: 10.2 µM
- TGI [34]: 34 µM
- GI50 [35]: 4.4 µM
- TGI [35]: 18.7 µM
- GI50 [36]: 2.72 µM
- TGI [36]: 12.9 µM
- GI50 [37]: 2.91 µM
- TGI [37]: 12.8 µM
- GI50 [38]: 1.92 µM
- TGI [38]: 6 µM
- GI50 [39]: 4.32 µM
- TGI [39]: 31.2 µM
- GI50 [40]: 2.74 µM
- TGI [40]: 9.5 µM
- GI50 [41]: 2.05 µM
- TGI [41]: 5.59 µM
- GI50 [42]: 3.49 µM
- TGI [42]: 15.5 µM
- GI50 [43]: 5.86 µM
- TGI [43]: 28.2 µM
- GI50 [44]: 3.68 µM
- TGI [44]: 15.1 µM
- GI50 [45]: 5.16 µM
- TGI [45]: 20 µM
- GI50 [46]: 4.33 µM
- TGI [46]: 16.2 µM
- GI50 [47]: 3.32 µM
- TGI [47]: 16.3 µM
- GI50 [48]: 2.27 µM
- TGI [48]: 10 µM
- GI50 [49]: 1.6 µM
- TGI [49]: 13.4 µM
- GI50 [50]: 3.47 µM
- TGI [50]: 16.3 µM
- GI50 [51]: 3.43 µM
- TGI [51]: 25.3 µM
- GI50 [52]: 8.38 µM
- TGI [52]: 24.3 µM
- GI50 [53]: 3.13 µM
- TGI [53]: 11.6 µM
- GI50 [54]: 11.7 µM
- TGI [54]: > 100 µM
- GI50 [55]: 3.26 µM
- TGI [55]: 17.5 µM
- GI50 [56]: 2.49 µM
- TGI [56]: 11.5 µM
